“Also recorded” adds a separate entry of the source. Like-named read-outs stand apart in the source and are kept apart here.
What was measured:
[1] = target: T1, GtfE (Amycolatopsis orientalis, UniProt Q9AFC6); test: GtfE steady-state kinetics and transfer of NDP-glucose derivatives to heptapeptide aglycone; assay type: biochemical; details: for Km: NDP-sugar donor varied, acceptor vancomycin aglycone held at 1 mM; for Km / kcat: pH 9; for kcat: acceptor vancomycin aglycone 1 mM; for recognition / transfer of the sugar by GtfE: vancomycin and teicoplanin aglycone acceptors, HPLC and mass spectrometry; for catalytic efficiency relative to native substrate: vancomycin aglycone as acceptor
T1 construct: made in house; host or cells: Escherichia coli
T1 sequence (Q9AFC6 1-409): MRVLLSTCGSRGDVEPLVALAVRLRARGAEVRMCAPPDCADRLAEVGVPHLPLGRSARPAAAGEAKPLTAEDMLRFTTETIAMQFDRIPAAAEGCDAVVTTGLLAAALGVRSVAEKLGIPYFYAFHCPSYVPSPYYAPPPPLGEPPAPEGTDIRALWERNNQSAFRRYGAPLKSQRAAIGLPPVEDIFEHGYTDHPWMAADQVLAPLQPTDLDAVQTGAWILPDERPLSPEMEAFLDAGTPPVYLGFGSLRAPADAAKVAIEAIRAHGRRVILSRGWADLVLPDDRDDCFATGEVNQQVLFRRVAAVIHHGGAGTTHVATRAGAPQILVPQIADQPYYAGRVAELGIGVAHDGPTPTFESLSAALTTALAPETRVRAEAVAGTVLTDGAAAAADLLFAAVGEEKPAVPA
Experimental: (The acceptor substrate, the vancomycin aglycone, was held constant at 1 mM in each experiment.)
Biochemistry 2001; 40(15):4745-55; and Solenberg et al. Production of hybrid glycopeptide antibiotics in vitro and in Streptomyces toyocaensis. Chem Biol 1997; 4(3):195-202. Reactions were carried out and analyzed by HPLC as previously described. […] Each 100 μL reaction contained either 1 mM vancomycin aglycone or 0.5 mM teicoplanin aglycone. […] Reactions with GtfD also contained 2 mM UDP-L-4-epi-vancosamine. 50 μL time points were taken at 0 and 20 h, and quenched with 9 vol methanol. After centrifugation, the supernatants were dried and resuspended in water for HPLC analysis. All glycosylation reactions were monitored by UV (285 nm) using a Vydac C18 small pore column with a linear gradient of 0-20 percent acetonitrile in water with 0.1 percent trifluoracetic acid. The molecular weight of new products was analyzed by Maldi-TOF mass spectrometry using a Perseptive Biosystems Voyager-DE STR mass spectrometer.
All reactions were carried out with 1 mM vancomycin aglycone as the acceptor substrate. […] Each experiment was performed in duplicate or triplicate.

[2] = target: thymidylyltransferase (rmlA-encoded Ep) (Salmonella typhimurium, UniProt P26393); details: Lindquist et al. 1993, cited from earlier work
thymidylyltransferase (rmlA-encoded Ep), sequence (P26393 whole entry): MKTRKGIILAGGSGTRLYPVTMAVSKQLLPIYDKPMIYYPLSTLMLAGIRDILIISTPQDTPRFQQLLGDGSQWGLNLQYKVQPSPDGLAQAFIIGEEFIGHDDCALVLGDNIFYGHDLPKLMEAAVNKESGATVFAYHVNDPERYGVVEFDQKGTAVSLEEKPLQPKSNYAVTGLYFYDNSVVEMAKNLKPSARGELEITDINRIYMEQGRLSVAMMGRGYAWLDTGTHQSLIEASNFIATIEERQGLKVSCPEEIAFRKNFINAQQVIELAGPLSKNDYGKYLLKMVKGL

[3] = tested on: DNA; details: estimated; unit not given; cited from earlier work
[4] = read-out: Km, forward direction

Compound	Km [1] [µM]	kcat [1] [s⁻¹]	further results
Cc1cn([C@H]2C[C@H](O)[C@@H](COP(=O)(O)OP(=O)(O)O[C@H]3O[C@H](CO)[C@@H](N)[C@H](O)[C@H]3O)O2)c(=O)[nH]c1=O [TDP-4-NH2-glucose, Thymidine 5′-(4-amino-4-deoxy-α-D-glucopyranosyl diphosphate)]	1100 ± 100	0.0217 ± 0.0017	–
Cc1cn([C@H]2C[C@H](O)[C@@H](COP(=O)(O)OP(=O)(O)O[C@H]3O[C@H](CO)[C@@H](O)[C@H](O)[C@H]3O)O2)c(=O)[nH]c1=O [TDP-glucose, Thymidine 5′-(α-D-glucopyranosyl diphosphate), reference compound]	620 ± 90	0.483 ± 0.033	Km ([2]; read-out: Km, reverse reaction): 83 µM
O=c1ccn(C2OC(COP(=O)(O)OP(=O)(O)OC3OC(CO)C(O)C(O)C3F)C(O)C2O)c(=O)[nH]1 (centres unmarked) [UDP-2-fluoro-glucose]	–	–	recognition / transfer of the sugar by GtfE [1]: inadequate for transfer; also recorded: not recognized
O=C[C@H](O)[C@@H](O)[C@H](O)CO [UDP-xylose, UDP xylose, reference compound]	–	–	catalytic efficiency relative to native substrate [1]: about 10%
NC[C@H]1O[C@H](OP(=O)(O)OP(=O)(O)OC[C@H]2O[C@@H](n3ccc(=O)[nH]c3=O)[C@H](O)[C@@H]2O)[C@H](O)[C@@H](O)[C@@H]1O [UDP-6-NH2-glucose, Uridine 5′-(6-amino-6-deoxy-α-D-glucopyranosyl diphosphate)]	1200 ± 200	0.025 ± 0.0033	–
[N-]=[N+]=NCC1OC(OP(=O)(O)OP(=O)(O)OC[C@H]2O[C@@H](n3ccc(=O)[nH]c3=O)[C@H](O)[C@@H]2O)C(O)C(O)C1O (some centres unmarked) [UDP-6-azido-glucose]	–	–	recognition / transfer of the sugar by GtfE [1]: inadequate for transfer
O=P(O)(O)O[C@H]1O[C@H](CO)[C@@H](O)[C@H](O)[C@H]1O [α-D-glucose-1-phosphate]	–	–	Km [2, 4]: 110 µM
[N-]=[N+]=NC1C(OP(=O)(O)OP(=O)(O)OCC2OC(n3ccc(=O)[nH]c3=O)C(O)C2O)OC(CO)C(O)C1O (centres unmarked) [UDP-2-azido-glucose]	–	–	recognition / transfer of the sugar by GtfE [1]: inadequate for transfer
CCN[C@H]1CO[C@@H](O[C@H]2[C@H](O[C@H]3C#CC=CC#C[C@@]4(O)CC(=O)C(NC(=O)OC)=C3/C4=C\CSSSC)O[C@H](C)[C@@H](NO[C@H]3C[C@H](O)[C@H](SC(=O)c4c(C)c(I)c(O[C@@H]5O[C@@H](C)[C@H](O)[C@@H](OC)[C@H]5O)c(OC)c4OC)[C@@H](C)O3)[C@@H]2O)C[C@@H]1OC (stereo in doubt) [calicheamicin, calicheamicin γ1^I]	–	–	affinity (DNA binding) [3]: 10^6-10^8
TDP-2-fluoro-glucose	–	–	recognition / transfer of the sugar by GtfE [1]: not detectably processed
NC1C(OP(=O)(O)OP(=O)(O)OCC2OC(n3ccc(=O)[nH]c3=O)C(O)C2O)OC(CO)C(O)C1O [UDP-2-NH2-glucose, Uridine 5′-(2-amino-2-deoxy-α-D-glucopyranosyl diphosphate)]	790 ± 80	0.045 ± 0.0033	–
Cc1cn([C@H]2C[C@H](O)[C@@H](COP(=O)(O)OP(=O)(O)OP(=O)(O)O)O2)c(=O)[nH]c1=O [dTTP]	–	–	Km [2, 4]: 20 µM
O=c1ccn([C@@H]2O[C@H](COP(=O)(O)OP(=O)(O)O[C@H]3O[C@H](CCl)[C@@H](O)[C@H](O)[C@H]3O)[C@@H](O)[C@H]2O)c(=O)[nH]1 [UDP-6-Cl-glucose, UDP-6-chloro-glucose]	21000 ± 6000	0.005 ± 0.0017	catalytic efficiency relative to native substrate [1]: less than 0.1%
O=P(O)(O)OP(=O)(O)O [diphosphate]	–	–	Km ([2]; read-out: Km, reverse reaction): 150 µM
Cc1cn(C2CC(O)C(COP(=O)(O)OP(=O)(O)OC3OC(CO)C(O)C(N)C3O)O2)c(=O)[nH]c1=O [TDP-3-NH2-glucose, Thymidine 5′-(3-amino-3-deoxy-α-D-glucopyranosyl diphosphate)]	720 ± 60	0.06 ± 0.0033	–
